PubChem BioAssay (NCI)
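Compound exposure: 48 hours, 5 concentrations, 96-well plates. GI50: concentration for 50% inhibition of growth. TGI is the concentration that stops growth completely.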

How the values were obtained:
Assay in all cases: NCI anticancer screen, dose series, 48 h
[1] = system: MOLT-4 leukemia
[2] = system: NCI-H226 lung
[3] = system: SF-295 CNS
[4] = system: MDA-MB-231 breast
[5] = system: LOX IMVI melanoma
[6] = system: MDA-MB-435
[7] = system: SR leukemia
[8] = system: SNB-19 CNS

Compound | GI50 [1] [µM] | TGI [1] [µM] | GI50 [2] [µM] | TGI [2] [µM] | GI50 [3] [µM] | TGI [3] [µM] | GI50 [4] [µM] | TGI [4] [µM] | GI50 [5] [µM] | TGI [5] [µM] | GI50 [6] [µM] | TGI [6] [µM] | GI50 [7] [µM] | TGI [7] [µM] | GI50 [8] [µM] | TGI [8] [µM]
COc1ccc(Cn2cc3c(c2-c2ccc(O)cc2)CCc2cnoc2-3)cc1 | 0.507 | 27.4 | 4.6 | 31.3 | 0.225 | 2.49 | 0.699 | 13.3 | 0.713 | 18.8 | 0.0737 | 0.365 | 0.149 | 3.79 | 0.586 | 17.1
Cc1ccc(/C=C/C(=O)c2ccc(N)cc2)c(C)c1 | 1.28 | 3.69 | 2.8 | 7.25 | 19.8 | 40.2 | 2.68 | 6.75 | 0.321 | 1.18 | 4.01 | 15.5 |  |  | 14.4 | 27.8
COC(=O)c1oc2c(O)c(OC)c(Br)cc2c1C | 22.4 | 43 | 29 | 50.2 | 31 | 70.2 | 16.5 | 37 | 23.5 | 39.2 | 29 | 65.4 | 0.354 | 18.2 | 22.9 | 46.1
COc1ccc(N(C)c2nc(Cl)nc3ccn(C)c23)cc1 | < 0.01 | > 100 | > 100 | > 100 | < 0.01 | > 100 | < 0.01 | > 100 | < 0.01 | > 100 |  |  | < 0.01 | > 100 | < 0.01 | > 100
O=C(Nc1cccnc1)c1cccc([N+](=O)[O-])c1 | > 100 | > 100 | > 100 | > 100 | > 100 | > 100 | > 100 | > 100 | > 100 | > 100 | > 100 | > 100 | > 100 | > 100 | > 100 | > 100
CC(=O)Nc1ccc2c(c1)C(=O)c1cccc(F)c1-2 |  | > 100 |  | > 100 |  | > 100 |  | > 100 |  | > 100 |  | > 100 |  | > 71.4 |  | > 100
O=c1[nH]ccc2nc(-c3ccc(CN4CCC(c5nc(-c6ccccn6)n[nH]5)CC4)cc3)c(-c3ccccc3)cc12 | 0.364 | 4.67 | 19 | > 100 | 1.11 | 19.9 | 19.2 | > 75.8 | 19.3 | > 94.2 | 17.4 | > 100 | 2.34 | 66 | 17.1 | > 100
O=C1Nc2ccccc2/C1=C/c1ccccc1 |  | 57.5 |  | 37.4 |  | 36.1 |  | 46.8 |  | 27.6 |  | 33.2 |  | 48.1 |  | 30
CC(C)(C)c1cn2cccc(C(=O)N3CCN(CC(=O)Nc4ccc(Cl)cc4C(=O)c4ccccc4Cl)CC3)c2n1 | 5.52 | > 100 | 11.3 | 37 | 4.05 | 7.18 | 13.1 | 34.5 | 11 | 23.9 | 6.39 | 21.6 | > 100 | > 100 | 15.3 | 54.8
CC(=O)c1c(O)ccc2c(C)c(C(=O)O)oc12 | > 100 | > 100 | 0.0188 | 12.2 | > 100 | > 100 |  |  | > 100 | > 100 | > 100 | > 100 |  |  | > 100 | > 100
COc1ccc(/C(=N\O)c2cc(OC)c(OC)c(OC)c2)c(OC)c1N | 3.95 | > 100 | 46.6 | > 100 | 2.37 | > 100 | 4.6 | > 100 | 5.38 | > 100 | 0.653 | 4.65 |  |  | 5.61 | > 100
COc1cc2c(cc1OCCCCCn1c(-c3ccco3)nc3ccccc31)N=C[C@@H]1CCCN1C2=O | < 0.01 |  | < 0.01 | < 0.0136 | < 0.01 | 0.0227 | < 0.0141 | 0.224 |  |  | < 0.01 | < 0.01 | < 0.01 | < 0.01 |  | 
COc1cc(-n2cc(-c3ccc(F)cc3)[nH]c2=S)cc(OC)c1OC | > 100 | > 100 | > 100 | > 100 | 47 | > 100 | 36.4 | > 100 | > 100 | > 100 | > 100 | > 100 |  |  | 36.6 | > 100
COc1ccc2c(c1)C(=O)/C(=C/c1ccc([N+](=O)[O-])s1)O2 | 0.867 | > 33.7 | 1.91 | 4.81 | 2.95 | 9.61 | 0.203 | 0.474 | 0.256 | 0.637 | 0.314 | 1.76 |  |  | 0.522 | 2
COc1cc2c3c(n(CCCNC(=O)OCC4c5ccccc5-c5ccccc54)c(=O)c2cc1OC)-c1cc2c(cc1C3=O)OCO2 | 8.07 | > 34.6 | > 100 | > 100 | 0.751 | > 100 | 15.9 | > 74.2 | 1.48 | > 37.1 | > 100 | > 100 |  |  | > 76.4 | > 100
CO/N=C(\COc1ccc2c(c1)oc(=O)c1cc(OC)ccc12)c1cccc(OC)c1 | > 100 | > 100 | > 100 | > 100 | > 100 | > 100 | > 100 | > 100 | > 100 | > 100 | > 100 | > 100 |  |  | > 100 | > 100
